Data reported in patent US6692927B2, “Bax degradation involvement in tumor survival and progression” (University of South Florida, priority 2000, dated 2004).
Where a SMILES comes first, the peptide text is derived from it. [ ]: non-standard residue; d: D form. The star is where a group is joined. Nva = CCC[C@H](N)C(=O)O; Cbz = O=C(OCc1ccccc1)*

Legend:
[1] = test system: human breast cancer (SK-BR-3, MDA-MB-468) cells; experiment: cellular detachment of breast cancer cells; format: cell-based; settings: breast cancer versus normal (MCF-10A) cells
Method: Proteasome inhibitors selectively induce apoptosis in human breast cancer, but not normal, cells. […] Cells of both human breast cancer lines became detached in a lactacystin-concentration-dependent manner (FIG. 3). No detachment was induced in the normal human breast cells MCF-10A after treatment with lactacystin for 48 hours (FIG. 3) or even 72 hours. Proteasome inhibition-induced detachment of breast cancer cells is due to apoptosis (An et al., in press).

[2] = test system: Jurkat T cells overexpressing Bcl-2; experiment: Western blot, fractionation, RT-PCR, immunostaining and IP in Bcl-2-overexpressing Jurkat T cells; format: cell-based, human; settings: for cytoplasmic Bax-immunofluorescent signals: immunofluorescent staining
Method: FIGS. 7A-7H show proteasome inhibitor LLnV induces Bax accumulation, cytochrome c release and PARP cleavage in Bcl-2-overexpressing Jurkat T cells. (FIGS. 7A-7C) Jurkat T cells overexpressing Bcl-2 (0 h) were treated with 50 μM LLnV for up to 8 h, followed by preparation of cytosol and mitochondrial fractions. Both fractions were immunoblotted first by an antibody to cytochrome c (Cyto C, MW 17 kDa; FIG. 7A and FIG. 7C) and then reblotted by anti-cytochrome oxidase subunit II (COX, MW 26 kDa; FIG. 7B). Note: 20 μg protein from the cytosol, and 40 μg protein from the mitochondrial, preparation was used in each lane. (FIGS. 7D-7G) Whole cell extracts (70 μg per lane) of the above treated cells were immunoblotted with specific antibodies to PARP (FIG. 7D), Bax (clone N-20; FIG. E), Bcl-2 (FIG. 7F), or actin (FIG. 7G). Molecular masses of PARP, the PARP cleavage fragment (p85), Bax, Bcl-2 and actin are 113, 85, 21, 26 and 40 kDa, respectively. Positions of protein markers are indicated at right. (FIG. 7H) Bcl-2-expressing Jurkat cells (Control) were treated with 50 μM LLnV for 8 h, followed by RT-PCR. For the first-strand cDNA synthesis, 0.2 (lanes 1, 4), 0.6 (lanes 2, 5) and 1.8 μg (lanes 3, 6) of the total RNA were used. The positions of Bax (538 bp) and G3PDH mRNA (983 bp) are indicated. Lane M is DNA molecular weight marker.
FIGS. 8A-8D show proteasome inhibition accumulates Bax to mitochondria/cytoplasm and increases interaction between Bax and Bcl-2 proteins. Jurkat cells (0 h; FIG. 8A and FIG. 8B) or Jurkat cells overexpressing Bcl-2 (0 h; FIG. 8C and FIG. 8D) were treated by either 10 μM lactacystin (FIGS. 8A-8C), 50 μM LLnV (FIG. 8D), or 50 μM LLM (FIG. 8A and FIG. 8B) for the indicated hours. (FIG. 8A and FIG. 8B) Western blotting with antibodies to PARP and Bax were performed as described in FIG. 7. (FIG. 8C) Immunohistochemistry (see MATERIALS AND METHODS). Localization of Bax protein (green) and nuclei (red) are shown. (FIG. 8D) Bax immunoprecipitates, prepared by an agarose-conjugated N-20 Bax antibody, were immunoblotted first with the 6A7 Bax antibody (upper) and then reblotted with a Bcl-2 antibody (lower).
Cell Culture and Drug Treatment: Human breast cancer MCF-7 cells, Jurkat T cells, and Jurkat T cells stably transfected with pRcCMV vector containing a complete human bcl-2 cDNA (obtained from Dr. Hong-gang Wang, Moffitt Cancer Center & Research Institute) were grown in RPMI 1640 growth medium (An et al., 1998). Treatment of cell with a proteasome inhibitor was performed as described (An et al., 1998; Dou et al., 1999).
Western blot analysis and Immunoprecipitation: Whole cell extract (An et al., 1996), whole tissue extracts (Loda et al., 1997), and cytosol and mitochondria fractions (Fang et al., 1998) were prepared as described. The enhanced chemiluminescence Western blot assay was performed as described previously (An et al., 1996). To perform a coupled immunoprecipitation-Western blot assay, a whole cell or tissue extract (200 microg protein) was first precleared by incubating with protein A plus protein G agarose beads (Calbiochem) at 4° C. for 2 hours. The collected supernatant was then incubated for at least 3 hours with either […] of agarose beads conjugated with the N20 Bax antibody (Santa Cruz Biotech), or the 6A7 Bax antibody, followed by incubation with protein A/protein G beads at 4° C. overnight. The washed Bax immunoprecipitates were boiled in SDS sample buffer and used for Western blotting with antibodies to Bax, Bcl-2 or ubiquitin.
Immunocytochemistry and Reverse Transcriptase-Polymerase Chain Reaction (RT-PCR): Immunocytochemistry was performed with the rabbit polyclonal Bax antibody (N20) and an FITO-labeled goat anti-rabbit antibody (Southern Biotech.; Birmingham, Ala.), followed by counter-staining nuclei with propidium iodide (Sigma) (Bossy-Wetzel et al., 1998). To perform RT-PCR, total RNA was isolated from Jurkat T cells by an Advantage RT-for-PCR kit (Clontech; palo Alto, Calif.). […]

Compound	cellular detachment [1]	level of cytosolic cytochrome c ([2]; 50 μM LLnV, 6 to 8 hours)	level of Bax protein (Bax/p21) ([2]; 50 μM LLnV, 1 hour or longer, Western blot)	Bax mRNA level ([2]; 50 μM LLnV, 8 h, RT-PCR)	levels of Bax/p21 and Bax-bound Bcl-2 protein ([2]; 50 μM LLnV, Bax immunoprecipitation-Western blot)	induction of apoptosis (PARP cleavage) ([2]; 50 μM LLnV, up to 8 h)	levels of the overexpressed Bcl-2 protein ([2]; 50 μM LLnV, up to 8 h)	cytoplasmic Bax-immunofluorescent signals [2]
CCC[C@@H](C=O)NC(=O)[C@H](CC(C)C)NC(=O)[C@H](CC(C)C)NC(=O)OCc1ccccc1 [LLnV] (Cbz-Leu-Leu-[Nva]-aldehyde)	selectively induced cellular detachment	increased	increased	remained unchanged	significantly increased	cleavage of PARP	Little changes	markedly increased
CC(=O)N[C@@H](CSC(=O)[C@]1([C@@H](O)C(C)C)NC(=O)[C@H](C)[C@@H]1O)C(=O)O [lactacystin]	selectively induced cellular detachment	–	–	–	–	–	–	markedly increased
